Results published in publication PMC12705226, “Lotusin A: a novel pyrrole terpenoid hydrid from lotus roots (Nelumbo nucifera Gaertn.)” (RSC Advances, 2025).
Where two headings read alike, the source gives them in different places.

Columns and labels:
α-glucosidase = α-glucosidase (Saccharomyces cerevisiae, UniProt P38158); assay: biochemical
Description: The α-glucosidase inhibitory assay was performed using a somewhat modified method of Kurihara et al.[44] For every reaction, […] p-nitrophenyl-α-D-glucopyranoside, 50 mL of 0.1 U mL^−1, α-glucosidase in 0.01 M phosphate buffer (pH 7.0), […] of sample solution (various concentrations of compound 1 with 5, 10, 25, 50 µM) were mixed. The mixture was kept at 37 °C for 30 minutes and added with 0.1 M Na2CO3. Mixture after reaction will be measured at a wavelength of 401 nm. The IC50 values represented the inhibitor concentration that suppressed 50% of enzyme activity. […] All experiments were performed in triplicate. The percentage inhibition was calculated using the following equation: α-glucosidase inhibition (%) = (Ac − At)/Ac × 100, where Ac is the absorbance of control (α-glucosidase, without sample) and At is the absorbance of test samples (α-glucosidase, with sample). The experimental results were processed using the GraphPad Prism 8 software.

RAW264.7 cells = assay: Determination of NO production in LPS-treated RAW264.7 cells (Griess reagent); type: cell-based; settings: for IC50: Mus musculus
Description: The production of nitric oxide (NO) was quantified by measuring the NO levels in cell culture supernatants using a previously method. In brief, RAW264.7 cells (ATCC, Rockville, MD, USA, 1 × 10^5 cells per well) were treated with 1 µg mL^−1 of LPS for 24 h, with and without the test compounds (1–100 µM). After incubation, the supernatant (100 µL) was mixed with 100 µL of Griess reagent. The viability of the remaining cells was assessed using an MTT-based colorimetric assay as described above.

six bacterial strains = assay: Antibacterial preliminary screening, text statements on all strains together; type: cell-based; settings: concentration of 10 µM
Description: It is based on combined biological activities of reported pyrrole sesquiterpenes and available screening models in our lab, including those regarding anti-inflammatory activities, antibacterial activities, and inhibition of α-glucosidase. […] To further evaluate the biological potential of compounds 1–6, we examined their antibacterial activities through preliminary screening at a concentration of 10 µM. The assays were conducted against three Gram-positive bacterial strains (Staphylococcus aureus, Bacillus subtilis, and Micrococcus luteus) and three Gram-negative strains (Salmonella typhimurium, Escherichia coli, and Klebsiella pneumoniae). This comparative screening aimed to determine whether any of these compounds could inhibit bacterial growth under identical conditions by conducting further experiments.
The antibacterial activities of compounds 1–6 were evaluated in 96-well plates using a modified broth microdilution method previously reported by our group. The MIC of the isolated compounds was determined against Staphylococcus aureus, Bacillus subtilis, Micrococcus luteus, Salmonella typhimurium, Escherichia coli, and Klebsiella pneumonia. Bacterial strains were cultured on TSB (Tryptic Soy Broth) agar plates and incubated at 37 °C for 24 h. […]

Salmonella typhimurium = assay: MIC measurement (broth microdilution); type: cell-based; settings: Gram-negative; screening at 10.0 µM
Description: (§1) The MIC of the isolated compounds was determined against Staphylococcus aureus, Bacillus subtilis, Micrococcus luteus, Salmonella typhimurium, Escherichia coli, and Klebsiella pneumonia. Bacterial strains were cultured on TSB (Tryptic Soy Broth) agar plates and incubated at 37 °C for 24 h. A single colony was transferred to Muller–Hinton broth (MHB), continuously incubated and harvested after 24 h at 37 °C and centrifuged at 250 rpm. The suspensions were adjusted to 0.5 McFarland standard, diluted to achieve a final concentration of approximately 5 × 10^5 CFU mL^−1 and added to each well. All compounds were dissolved in DMSO and dispensed into 96-well plates at a starting concentration of 10 µM. Kanamycin was used as a positive control.

Micrococcus luteus = assay: MIC measurement (broth microdilution); type: cell-based; settings: Gram-positive; screening at 10.0 µM
Description: as §1, with “The antibacterial activities of compounds 1–6 were evaluated in 96-well plates using a modified broth microdilution method previously reported by our group. The MIC” for “The MIC”

Staphylococcus aureus = assay: MIC measurement (broth microdilution); type: cell-based; settings: Gram-positive; screening at 10.0 µM
Description: as §1, with “The antibacterial activities of compounds 1–6 were evaluated in 96-well plates using a modified broth microdilution method previously reported by our group. The MIC” for “The MIC”

Klebsiella pneumoniae = assay: MIC measurement (broth microdilution); type: cell-based; settings: Gram-negative; screening at 10.0 µM
Description: as §1, with “The antibacterial activities of compounds 1–6 were evaluated in 96-well plates using a modified broth microdilution method previously reported by our group. The MIC” for “The MIC”

Bacillus subtilis = assay: MIC measurement (broth microdilution); type: cell-based; settings: Gram-positive; screening at 10.0 µM
Description: as §1, with “The antibacterial activities of compounds 1–6 were evaluated in 96-well plates using a modified broth microdilution method previously reported by our group. The MIC” for “The MIC”

Escherichia coli = assay: MIC measurement (broth microdilution); type: cell-based; settings: Gram-negative; screening at 10.0 µM
Description: as §1, with “The antibacterial activities of compounds 1–6 were evaluated in 96-well plates using a modified broth microdilution method previously reported by our group. The MIC” for “The MIC”

[1] = RAW264.7, 24 h, read-out: NO production (IC50, µM)

Chain of α-glucosidase (P38158 whole entry): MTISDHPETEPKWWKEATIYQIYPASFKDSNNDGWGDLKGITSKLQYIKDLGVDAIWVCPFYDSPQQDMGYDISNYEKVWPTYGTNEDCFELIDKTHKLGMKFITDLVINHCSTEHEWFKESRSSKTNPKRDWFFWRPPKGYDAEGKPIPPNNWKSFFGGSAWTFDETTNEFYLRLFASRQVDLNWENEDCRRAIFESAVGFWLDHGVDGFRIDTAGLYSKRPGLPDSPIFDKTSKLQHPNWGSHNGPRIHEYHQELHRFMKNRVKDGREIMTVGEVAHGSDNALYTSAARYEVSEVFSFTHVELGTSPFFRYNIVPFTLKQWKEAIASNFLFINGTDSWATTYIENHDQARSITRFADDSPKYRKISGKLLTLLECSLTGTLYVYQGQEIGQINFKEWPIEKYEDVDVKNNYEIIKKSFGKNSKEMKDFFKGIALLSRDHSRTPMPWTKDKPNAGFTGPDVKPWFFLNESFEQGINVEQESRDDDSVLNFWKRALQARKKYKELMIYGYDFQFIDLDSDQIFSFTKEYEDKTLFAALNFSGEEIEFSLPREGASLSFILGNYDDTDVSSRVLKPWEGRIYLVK

Work on `CC[C@H](CC[C@@H](C)[C@H]1CC[C@H]2[C@@H]3CCC4=CC(=O)CC[C@]4(C)[C@H]3CC[C@]12C)C(C)C` (stereo in doubt) [Compound 3, stigmast-4-en-3-one] yielded an IC50 (α-glucosidase) of over 50 µM.
`CC1=C(O)C(=O)C=C2C1=CC=C1[C@@]2(C)CC[C@@]2(C)[C@@H]3C[C@](C)(C(=O)O)CC[C@]3(C)CC[C@]12C` [Celastrol, reference compound] gave an IC50 (RAW264.7 cells; RAW264.7 cells, 1 µg mL^−1 LPS, 24 h, read-out: NO production (IC50)) of 1.2 µM.
`CO[C@@H](CC(=O)c1ccc[nH]1)C(N)=O` [Compound 1, lotusin A] was tested, and the IC50 (α-glucosidase; pH 7.0, 37 °C, 30 minutes, read-out: α-Glucosidase (IC50)) was 18.2 ± 0.17 µM, the IC50 (RAW264.7 cells; [1]) was 21.5 ± 0.3 µM and the “inhibition of microbial growth” value (six bacterial strains) was “no inhibition”.
`CC(C)CCCC(C)C1CCC2C3CCC4CC(O)CCC4(C)C3CCC12C` (centres unmarked) [Compound 2, cholestanol] was tested, and the IC50 (α-glucosidase) was over 50 µM, the IC50 (RAW264.7 cells; [1]) was over 100 µM and the “NO production (IC50, µM)” value (RAW264.7 cells; RAW264.7 cells, 1 µg mL^−1 LPS, 24 h) was “did not show any activity”.
Compound `O=c1c(O)c(-c2ccc(O)c(O)c2)oc2cc(O)cc(O)c12` [Compound 4, quercetin] has an IC50 (α-glucosidase) of over 50 µM.
`COc1cc(-c2oc3cc(O)cc(O)c3c(=O)c2O)ccc1O` [Compound 5, isorhamnetin] was tested, and the IC50 (α-glucosidase) was over 50 µM.
Compound `O=c1cc(-c2ccc(O)cc2O)oc2cc(O)cc(O)c12` [Compound 6, norartocarpetin] has an IC50 (α-glucosidase; pH 7.0, 37 °C, 30 minutes, class symbol, read-out: α-Glucosidase (IC50)) of over 50 µM.
In the case of `NC[C@H]1O[C@H](O[C@H]2[C@H](O)[C@@H](O[C@H]3O[C@H](CO)[C@@H](O)[C@H](N)[C@H]3O)[C@H](N)C[C@@H]2N)[C@H](O)[C@@H](O)[C@@H]1O` [Kanamycin], the “MIC (10.0 µM) Salmonella typhimurium” value (Salmonella typhimurium) is reported as “A”, the “MIC (10.0 µM) Micrococcus luteus” value (Micrococcus luteus) is reported as “A” and the “MIC (10.0 µM) Staphylococcus aureus” value (Staphylococcus aureus) is reported as “A”. The “MIC (10.0 µM) Klebsiella pneumoniae” value (Klebsiella pneumoniae) was “A”, the “MIC (10.0 µM) Bacillus subtilis” value (Bacillus subtilis) was “A” and the “MIC (10.0 µM) Escherichia coli” value (Escherichia coli) was “A”.
